Assay [1] has as its target Beta Secretase enzyme (BACE) (Homo sapiens, UniProt P56817). Description: In vitro enzymatic BACE FRET (fluorescence resonance energy transfer) assay. It counts as biochemical. The gist of the method: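 Buffer 0.05 M acetate pH 4.2, 10% DMSO final, 100 uM genapol (sub-CMC); start with 50 nM FRET substrate; 1 h incubation; Tris stop; fluorescence read.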
Assay [2] has as its system Abeta 40 in cerebrospinal fluid (CSF) and brain. In words: In vivo inhibition of beta-secretase (Abeta 40 reduction in CSF and brain). The settings on record: rat, after 4 hrs; for inhibition in vivo at 3 mg/kg: Abeta 40, 3 mpk; for inhibition in vivo at 10 mg/kg: Abeta 40, 10 mg/kg (10 mpk). The source says: In Vivo Inhibition of Beta-Secretase
Several animal models, including mouse, rat, dog, and monkey, may be used to screen for inhibition of beta-secretase activity in vivo following administration of a test compound sample. Animals used in this invention can be wild type, transgenic, or gene knockout animals. […] A separate group of animals receive 2% hydroxypropyl methylcellulose, 1% Tween80 alone, containing no test compound, and serve as a vehicle-control group. At the end of the test period, animals are sacrificed and brain tissues, plasma or cerebrospinal fluid are collected. […] Homogenates are centrifuged at 355,000 g, 4° C. for 30 minutes. CSF or brain supernatants are then analyzed for the presence of A-beta peptide by specific sandwich ELISA assays based on ECL (Electrochemiluminescence) technology. For example, rat Abeta40 is measured using biotinylated-4G8 (Signet) as a capture antibody and Fab40 (an in-house antibody specific to the C-terminal of Abeta40) as a detection antibody.
Actual vehicles used: Oral: 2% HPMC, 1% Tween80, pH 2.2

Assay [3] concerns Aβ40 in conditioned medium of cells stably expressing Amyloid Precursor Protein (APP). In words: In vitro BACE cell-based assay (Aβ40 in conditioned medium, sandwich ELISA). The settings on record: Homo sapiens. The gist of the method:
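Quantification relied on pAb40/6E10 sandwich ELISA with Europium fluorescence counts, and IC50 was fitted versus concentration.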
In general terms: An ELISA detects its analyte on a solid surface through an enzyme-linked reagent.

[4] abbreviates: average IC50, enzyme assay, read-out: BACE 1 FRET assay.
Where [5] appears, read: CSF, read-out: CSF A-beta reduction % at 3 mpk.
Setting [6] is: brain, read-out: Brain A-beta reduction % at 3 mpk.
Where [7] appears, read: HEK293, average IC50, HEK cells, read-out: HEK cell assay.
The mark [8] stands for this setting: CSF, read-out: CSF A-beta reduction % at 10 mg/kg.
Setting [9] is: brain, read-out: Brain A-beta reduction % at 10 mg/kg.
The mark [10] stands for this setting: HEK293, average IC50, read-out: HEK cell assay.

The structures appear in SMILES notation. Where two headings read alike, the source gives them in different places.

Here are results for 18 molecules from patent US8883782B2, “Spiro-tetracyclic ring compounds as beta-secretase modulators and methods of use” (Amgen Inc., priority 2010, dated 2014).

Chain of Beta Secretase enzyme (BACE) (P56817 46-501, species assumed): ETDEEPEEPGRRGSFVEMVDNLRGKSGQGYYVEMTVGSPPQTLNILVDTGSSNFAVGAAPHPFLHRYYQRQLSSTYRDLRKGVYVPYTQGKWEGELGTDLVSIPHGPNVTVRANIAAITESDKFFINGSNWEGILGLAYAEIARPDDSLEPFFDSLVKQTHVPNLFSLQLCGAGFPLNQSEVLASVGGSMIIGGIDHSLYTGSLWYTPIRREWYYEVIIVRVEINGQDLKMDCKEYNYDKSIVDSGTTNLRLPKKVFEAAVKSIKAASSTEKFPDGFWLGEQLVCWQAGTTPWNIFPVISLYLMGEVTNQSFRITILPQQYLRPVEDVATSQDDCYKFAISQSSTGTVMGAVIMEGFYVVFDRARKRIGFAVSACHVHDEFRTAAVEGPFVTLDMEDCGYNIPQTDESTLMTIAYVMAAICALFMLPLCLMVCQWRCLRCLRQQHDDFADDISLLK

In the case of `CC#Cc1cncc(-c2ccc3c(c2)[C@@]2(COC(N)=N2)c2cc(C4=CCOCC4)cnc2O3)c1` [Example 942, (S)-3-(3,6-dihydro-2H-pyran-4-yl)-7-(5-(prop-1-ynyl)pyridin-3-yl)-5′H-spiro[chromeno[2,3-b]pyridine-5,4′-oxazol]-2′-amine], the IC50 in assay [1] (setting [4]) was found to be 0.0004 µM; in assay [3] (setting [7]), 0.001 µM. Further, the inhibition in vivo at 3 mg/kg in assay [2] (setting [5]) came to 57%; in assay [2] (setting [6]), 42%.
On to `NC1=N[C@@]2(CO1)c1cc(-c3cccnc3)ccc1Oc1cnc(N3CCC(F)(F)CC3)cc12` [Example 402, (5S)-3-(4,4-difluoro-1-piperidinyl)-7-(3-pyridinyl)spiro[chromeno[2,3-c]pyridine-5,4′-[1,3]oxazol]-2′-amine], for which the IC50 in assay [1] (setting [4]) was found to be 0.0024 µM; in assay [3] (setting [7]), 0.0131 µM. The figures for the inhibition in vivo at 10 mg/kg in assay [2] (setting [8]) and in assay [2] (setting [9]) were 52% and 28%, respectively.
`CC(C)(C#N)COc1cc(F)c2c(c1)[C@]1(COC(N)=N1)c1cc(-c3cccnc3)c(F)cc1O2` [Example 860, (S)-3-(2-amino-3′,5′-difluoro-2′-(pyridin-3-yl)-5H-spiro[oxazole-4,9′-xanthene]-7′-yloxy)-2,2-dimethylpropanenitrile]: the IC50 in assay [1] (setting [4]) was 0.0007 µM; in assay [3] (setting [7]), 0.01 µM. The values for the inhibition in vivo at 10 mg/kg in assay [2] (setting [8]) and in assay [2] (setting [9]) were 0% and 2%, respectively.
With `CC1(C)C=C(c2cc3c(cn2)Oc2ccc(-c4ccc(F)nc4)cc2[C@@]32COC(N)=N2)CCO1` [Example 369, (S)-3-(6,6-dimethyl-3,6-dihydro-2H-pyran-4-yl)-7-(6-fluoropyridin-3-yl)-5′H-spiro[chromeno[2,3-c]pyridine-5,4′-oxazol]-2′-amine], the figures for the IC50 in assay [1] (setting [4]) and in assay [3] (setting [10]) were 0.0028 µM and 0.0162 µM, respectively. Further, the inhibition in vivo at 10 mg/kg came out at 46% in assay [2] (setting [8]) and 31% in assay [2] (setting [9]).
As for `NC1=N[C@@]2(CO1)c1cc(-c3c(F)ccnc3F)ccc1Oc1cnc(C3=CCCOC3)cc12` [Example 676, (5S)-7-(2,4-difluoro-3-pyridinyl)-3-(5,6-dihydro-2H-pyran-3-yl)spiro[chromeno[2,3-c]pyridine-5,4′-[1,3]oxazol]-2′-amine], the IC50 in assay [1] (setting [4]) is 0.0006 µM; in assay [3] (setting [7]), 0.006 µM. Besides, the figures for the inhibition in vivo at 3 mg/kg in assay [2] (setting [5]) and in assay [2] (setting [6]) were 76% and 74%, respectively.
On to `CC#Cc1cncc(-c2ccc3c(c2)[C@@]2(COC(N)=N2)c2cc(-c4cccnc4)nc(F)c2O3)c1` [Example 759, (S)-1-fluoro-7-(5-(prop-1-ynyl)pyridin-3-yl)-3-(pyridin-3-yl)-5′H-spiro[chromeno[2,3-c]pyridine-5,4′-oxazol]-2′-amine], for which the IC50 in assay [1] (setting [4]) stood at 0.0004 µM; in assay [3] (setting [10]), 0.003 µM. Moreover, the inhibition in vivo at 3 mg/kg in assay [2] (setting [5]) and in assay [2] (setting [6]) was 43% each time.
With `NC1=N[C@@]2(CO1)c1cc(-c3cccnc3)ccc1Oc1c2cc(C2=CCCOC2)nc1F` [Example 745, (5S)-3-(5,6-dihydro-2-H-pyran-3-yl)-1-fluoro-7-(3-pyridinyl)spiro[chromeno[2,3-c]pyridine-5-4′-[1,3]oxazol]-2′-amine], the IC50 came out at 0.0004 µM in assay [1] (setting [4]) and 0.004 µM in assay [3] (setting [10]). Further, the inhibition in vivo at 10 mg/kg was found to be 78% in assay [2] (setting [8]) and 69% in assay [2] (setting [9]).
Take `NC1=N[C@@]2(CO1)c1cc(-c3cccnc3F)c(F)cc1Oc1c(F)cc(C3=CCOCC3)cc12` (single isomer, unassigned) [Example 867]: the IC50 in assay [1] (BACE 1 FRET assay (uM)) was found to be 0.0003 µM; in assay [3] (HEK293, read-out: HEK cell assay (uM), average IC50, HEK cells) it was 0.005 µM. Also, the values for the inhibition in vivo at 10 mg/kg in assay [2] (setting [8]) and in assay [2] (setting [9]) were 56% and 39%, respectively.
With `NC1=N[C@@]2(CO1)c1cc(-c3cncc(F)c3)ccc1Oc1cnc(N3CCC(F)(F)CC3)cc12` [Example 414, (5S)-3-(4,4-difluoro-1-piperidinyl)-7-(5-fluoro-3-pyridinyl)spiro[chromeno[2,3-c]pyridine-5,4′-[1,3]oxazol]-2′-amine], the IC50 in assay [1] (setting [4]) came to 0.0015 µM; in assay [3] (setting [7]) it was 0.0136 µM. For the same molecule, the inhibition in vivo at 10 mg/kg in assay [2] (setting [8]) came out at 64%; in assay [2] (setting [9]), 44%.
In the same order, the values of `N#Cc1cccc(-c2ccc3c(c2)[C@@]2(COC(N)=N2)c2cc(N4CCC(F)(F)C4)ncc2O3)c1` [Example 134, (S)-3-(2′-amino-3-(3,3-difluoropyrolidin-1-yl)-5′H-spiro[chromeno[2,3-c]pyridine-5,4′-oxazole]-7-yl)benzonitrile] are 0.001 µM, 0.012 µM, 61% and 45%.
For `NC1=N[C@@]2(CO1)c1cc(-c3cncc(F)c3)ccc1Oc1c2cc(N2CCOCC2)nc1F` [Example 893, (5S)-1-fluoro-7-(5-fluoro-3-pyridinyl)-3-(4-morpholinyl)spiro[chromeno[2,3-c]pyridine-5,4′-[1,3]oxazol]-2′-amine], in that order: 0.0003 µM, 0.007 µM, 76% and 70%.
In the case of `Cc1cnc(F)c(-c2ccc3c(c2)[C@@]2(COC(N)=N2)c2cc(N4CCOCC4)cc(F)c2O3)c1` [Example 132, (S)-4′-fluoro-7′-(2-fluoro-5-methylpyridin-3-yl)-2′-morpholino-5H-spiro[oxazole-4,9′-xanthen]-2-amine], the results for the IC50 in assay [1] (setting [4]) and in assay [3] (setting [10]) were 0.0015 µM and 0.006 µM, respectively. Also, the figures for the inhibition in vivo at 10 mg/kg in assay [2] (setting [8]) and in assay [2] (setting [9]) were 54% and 45%, respectively.
For `NC1=N[C@@]2(CS1)c1cc(-c3cccnc3F)ccc1Oc1c(F)cc(-c3ncccn3)cc12` [Example 1079, (S)-4′-fluoro-7′-(2-fluoropyridin-3-yl)-2′-(pyrimidin-2-yl)-5H-spiro[thiazole-4,9′-xanthen]-2-amine], in that order: 0.0004 µM, 0.012 µM, 67% and 54%.
`CC1(C#Cc2cnc3c(c2)[C@]2(COC(N)=N2)c2cc(-c4cccc(C#N)c4)ccc2O3)COC1` [Example 127, (S)-3-(2′-amino-3-((3-methyloxetan-3-yl)ethynyl)-5′H-spiro[chromeno[2,3-b]pyridine-5,4′-oxazole]-7-yl)benzonitrile]: the IC50 in assay [1] (setting [4]) came out at 0.0011 µM; in assay [3] (setting [10]), 0.005 µM. The inhibition in vivo at 10 mg/kg in assay [2] (setting [8]) is 61%; in assay [2] (setting [9]), 45%.
As for `CC(C)(F)COc1cc(F)c2c(c1)[C@]1(COC(N)=N1)c1cc(-c3cncnc3)c(F)cc1O2` [Example 668, (4S)-3′,5′-difluoro-7′-(2-fluoro-2-methylpropoxy)-2′-(5-pyrimidinyl)spiro[1,3-oxazole-4,9′-xanthen]-2-amine], the IC50 stood at 0.0008 µM in assay [1] (setting [4]) and 0.011 µM in assay [3] (setting [7]). For the same molecule, the inhibition in vivo at 3 mg/kg came to 55% in assay [2] (setting [5]) and 46% in assay [2] (setting [6]).
As for `CC1(C)C=C(c2ccc3c(c2)[C@]2(COC(N)=N2)c2cc(-c4cncnc4)c(F)cc2O3)CCO1` [Example 508, (R)-7′-(6,6-dimethyl-3,6-dihydro-2H-pyran-4-yl)-3′-fluoro-2′-(pyrimidin-5-yl)-5H-spiro[oxazole-4,9′-xanthen]-2-amine], the results for the IC50 in assay [1] (setting [4]) and in assay [3] (setting [7]) were 0.0037 µM and 0.0144 µM, respectively. For the same molecule, the figures for the inhibition in vivo at 10 mg/kg in assay [2] (setting [8]) and in assay [2] (setting [9]) were 49% and 25%, respectively.
In the same order, the values of `NC1=N[C@@]2(CO1)c1cc(-c3cncc(F)c3)ccc1Oc1c2cc(N2CCC(F)(F)CC2)nc1F` [Example 927, (S)-3-(4,4-difluoropiperidin-1-yl)-1-fluoro-7-(5-fluoropyridin-3-yl)-5′-H-spiro[chromeno[2,3-c]pyridine-5,4′-oxazol]-2′-amine] are 0.0003 µM, 0.01 µM, 70% and 65%.
`CC1(C#Cc2cnc3c(c2)[C@]2(COC(N)=N2)c2cc(-c4cccc(Cl)c4F)ccc2O3)COC1` [Example 463, (S)-7-(3-chloro-2-fluorophenyl)-3-((3-methyloxetan-3-yl)ethynyl)-5′H-spiro[chromeno[2,3-b]pyridine-5,4′-oxazol]-2′-amine]: the IC50 in assay [1] (setting [4]) is 0.0008 µM; in assay [3] (setting [7]) it was 0.0143 µM. The inhibition in vivo at 10 mg/kg stood at 30% in assay [2] (setting [8]) and 9% in assay [2] (setting [9]).
